Laboratory results: patent EP4467141A1, “PYRAZOLO-QUINOLINES AS SELECTIVE INHIBITORS OF GENOTOXIC STRESS-INDUCED IKK/NF- KB PATHWAYS FOR CANCER THERAPY” (Max-Delbrück-Centrum für Molekulare Medizin in der …, priority 2023, dated 2024)

Key:
Assay in all cases: Kinase panel study
Type in all cases: biochemical
Details in all cases: read-out: Percentage of inhibition; for inhibition at 1 µM: 1000nM; for inhibition at 10 µM: 10000nM
PRKCH (PKC eta) = target: T1, PRKCH (PKC eta) (Homo sapiens, UniProt P24723)
T1 construct: purchased Thermo Fisher Scientific
T1 sequence (P24723 whole entry): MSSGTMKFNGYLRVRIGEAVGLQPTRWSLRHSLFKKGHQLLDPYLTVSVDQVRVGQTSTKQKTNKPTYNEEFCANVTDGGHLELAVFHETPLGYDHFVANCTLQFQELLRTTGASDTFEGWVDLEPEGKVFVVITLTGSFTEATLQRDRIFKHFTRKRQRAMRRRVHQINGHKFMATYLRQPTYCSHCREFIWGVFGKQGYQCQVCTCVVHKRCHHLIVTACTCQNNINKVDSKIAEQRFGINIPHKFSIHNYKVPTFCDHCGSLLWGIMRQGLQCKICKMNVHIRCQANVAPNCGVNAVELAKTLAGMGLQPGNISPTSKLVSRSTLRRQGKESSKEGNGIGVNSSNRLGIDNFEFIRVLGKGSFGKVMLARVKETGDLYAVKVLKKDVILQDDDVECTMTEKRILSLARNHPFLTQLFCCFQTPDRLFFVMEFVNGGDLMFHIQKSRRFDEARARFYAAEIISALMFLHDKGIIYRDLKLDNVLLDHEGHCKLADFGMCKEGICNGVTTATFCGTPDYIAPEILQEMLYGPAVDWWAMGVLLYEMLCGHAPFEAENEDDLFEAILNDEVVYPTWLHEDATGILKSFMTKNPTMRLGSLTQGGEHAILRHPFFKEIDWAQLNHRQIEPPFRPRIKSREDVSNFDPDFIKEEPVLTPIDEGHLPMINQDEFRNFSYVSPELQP
In short: (§1)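 Outsourced panel screen. Format: ZLyte or Adapta, run per the manufacturer's procedures. Read-out: inhibition (%) at a single dose of 10 µM or 1 µM; IC50s also generated.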

ERBB4 (HER4) = target: T2, ERBB4 (HER4) (Homo sapiens, UniProt Q15303)
T2 construct: purchased Thermo Fisher Scientific
T2 sequence (Q15303 26-1308): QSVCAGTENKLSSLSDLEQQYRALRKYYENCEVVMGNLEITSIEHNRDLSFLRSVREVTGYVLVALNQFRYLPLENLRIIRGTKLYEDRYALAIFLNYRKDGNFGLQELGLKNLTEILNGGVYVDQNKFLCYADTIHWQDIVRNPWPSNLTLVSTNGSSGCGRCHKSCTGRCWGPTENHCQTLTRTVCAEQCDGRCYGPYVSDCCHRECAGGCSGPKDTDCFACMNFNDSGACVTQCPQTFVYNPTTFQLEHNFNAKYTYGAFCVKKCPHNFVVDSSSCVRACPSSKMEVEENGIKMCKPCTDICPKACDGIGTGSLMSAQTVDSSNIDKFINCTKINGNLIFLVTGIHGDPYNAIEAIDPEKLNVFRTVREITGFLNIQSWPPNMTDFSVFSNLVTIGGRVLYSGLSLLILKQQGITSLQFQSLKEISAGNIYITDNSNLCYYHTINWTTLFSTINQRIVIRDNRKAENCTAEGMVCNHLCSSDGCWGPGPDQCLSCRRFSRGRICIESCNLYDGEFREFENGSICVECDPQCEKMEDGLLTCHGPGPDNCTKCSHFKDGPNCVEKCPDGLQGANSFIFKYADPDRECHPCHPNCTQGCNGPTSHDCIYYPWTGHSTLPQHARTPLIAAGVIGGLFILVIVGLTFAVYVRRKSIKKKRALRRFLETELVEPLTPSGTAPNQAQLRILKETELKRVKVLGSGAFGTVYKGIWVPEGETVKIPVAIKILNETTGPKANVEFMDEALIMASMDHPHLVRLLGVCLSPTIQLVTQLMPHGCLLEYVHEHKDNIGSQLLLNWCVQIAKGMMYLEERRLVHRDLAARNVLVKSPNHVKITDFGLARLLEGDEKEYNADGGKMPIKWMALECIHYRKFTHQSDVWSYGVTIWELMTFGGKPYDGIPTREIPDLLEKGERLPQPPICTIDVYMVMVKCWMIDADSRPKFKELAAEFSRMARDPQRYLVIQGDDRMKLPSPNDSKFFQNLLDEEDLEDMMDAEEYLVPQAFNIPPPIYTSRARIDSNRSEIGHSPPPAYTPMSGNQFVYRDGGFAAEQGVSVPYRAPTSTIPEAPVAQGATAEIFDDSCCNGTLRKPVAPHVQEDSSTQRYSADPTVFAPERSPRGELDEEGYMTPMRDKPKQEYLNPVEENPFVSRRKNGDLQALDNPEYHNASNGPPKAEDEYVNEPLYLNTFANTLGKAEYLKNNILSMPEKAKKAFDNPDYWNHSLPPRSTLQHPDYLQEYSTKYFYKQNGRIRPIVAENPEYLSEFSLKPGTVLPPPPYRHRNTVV
In short: as §1

RET S891A = target: T3, RET S891A (Homo sapiens, UniProt P07949, S891A)
T3 construct: purchased Thermo Fisher Scientific
T3 sequence (P07949 29-1114 S891A): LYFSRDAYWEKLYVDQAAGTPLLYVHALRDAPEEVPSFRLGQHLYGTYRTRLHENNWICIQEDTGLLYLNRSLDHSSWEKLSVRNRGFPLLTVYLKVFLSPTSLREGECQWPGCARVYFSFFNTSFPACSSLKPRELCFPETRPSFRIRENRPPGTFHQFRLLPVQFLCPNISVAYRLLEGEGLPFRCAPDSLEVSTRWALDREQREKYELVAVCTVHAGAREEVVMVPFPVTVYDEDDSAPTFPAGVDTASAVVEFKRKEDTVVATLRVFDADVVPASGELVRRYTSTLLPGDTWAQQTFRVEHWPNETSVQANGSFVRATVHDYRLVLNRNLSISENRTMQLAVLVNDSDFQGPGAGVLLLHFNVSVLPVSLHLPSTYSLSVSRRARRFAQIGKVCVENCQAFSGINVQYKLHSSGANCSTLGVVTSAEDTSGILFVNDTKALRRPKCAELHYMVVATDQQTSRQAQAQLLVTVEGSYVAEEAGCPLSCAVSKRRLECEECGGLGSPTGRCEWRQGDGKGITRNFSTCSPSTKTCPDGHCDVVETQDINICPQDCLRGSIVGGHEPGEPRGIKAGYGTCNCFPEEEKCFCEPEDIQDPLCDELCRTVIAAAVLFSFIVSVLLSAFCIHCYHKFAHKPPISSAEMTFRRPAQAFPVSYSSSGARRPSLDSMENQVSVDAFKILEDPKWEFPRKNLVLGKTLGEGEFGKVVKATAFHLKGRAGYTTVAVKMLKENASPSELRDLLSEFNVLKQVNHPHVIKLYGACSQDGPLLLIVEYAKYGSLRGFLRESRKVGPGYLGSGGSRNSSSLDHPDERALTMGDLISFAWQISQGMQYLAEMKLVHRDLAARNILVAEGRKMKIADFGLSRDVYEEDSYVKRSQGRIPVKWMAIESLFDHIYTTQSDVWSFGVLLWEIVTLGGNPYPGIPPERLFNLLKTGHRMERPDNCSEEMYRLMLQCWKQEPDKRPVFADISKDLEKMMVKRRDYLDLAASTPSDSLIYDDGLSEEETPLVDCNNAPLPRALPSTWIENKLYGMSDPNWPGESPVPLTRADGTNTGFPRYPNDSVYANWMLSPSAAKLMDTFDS
In short: as §1

NTRK2 (TRKB) = target: T4, NTRK2 (TRKB) (Homo sapiens, UniProt Q16620)
T4 construct: purchased Thermo Fisher Scientific
T4 sequence (Q16620 32-822): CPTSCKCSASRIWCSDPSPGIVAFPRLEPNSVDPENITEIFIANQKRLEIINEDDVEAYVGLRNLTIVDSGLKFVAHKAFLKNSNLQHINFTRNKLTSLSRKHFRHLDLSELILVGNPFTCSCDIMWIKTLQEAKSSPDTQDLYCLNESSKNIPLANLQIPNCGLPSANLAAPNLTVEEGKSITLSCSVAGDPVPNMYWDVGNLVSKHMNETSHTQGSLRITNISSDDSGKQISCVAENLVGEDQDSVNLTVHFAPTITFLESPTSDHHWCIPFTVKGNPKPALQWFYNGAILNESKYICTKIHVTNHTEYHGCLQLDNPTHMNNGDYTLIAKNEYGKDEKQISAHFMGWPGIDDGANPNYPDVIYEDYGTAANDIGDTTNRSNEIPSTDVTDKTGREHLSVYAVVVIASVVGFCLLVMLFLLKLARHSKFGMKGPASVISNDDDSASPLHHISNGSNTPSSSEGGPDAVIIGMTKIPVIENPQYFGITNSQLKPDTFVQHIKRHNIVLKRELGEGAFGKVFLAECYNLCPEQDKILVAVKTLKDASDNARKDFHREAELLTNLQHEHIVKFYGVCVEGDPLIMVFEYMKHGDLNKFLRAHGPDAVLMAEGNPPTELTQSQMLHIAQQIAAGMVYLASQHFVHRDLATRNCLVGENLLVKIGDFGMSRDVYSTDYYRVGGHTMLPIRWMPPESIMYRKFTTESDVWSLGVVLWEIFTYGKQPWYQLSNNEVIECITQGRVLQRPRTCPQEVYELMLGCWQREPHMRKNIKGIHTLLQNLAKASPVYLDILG
In short: as §1

PRKG1 = target: T5, PRKG1 (Homo sapiens, UniProt Q13976)
T5 construct: purchased Thermo Fisher Scientific
T5 sequence (Q13976 1-671): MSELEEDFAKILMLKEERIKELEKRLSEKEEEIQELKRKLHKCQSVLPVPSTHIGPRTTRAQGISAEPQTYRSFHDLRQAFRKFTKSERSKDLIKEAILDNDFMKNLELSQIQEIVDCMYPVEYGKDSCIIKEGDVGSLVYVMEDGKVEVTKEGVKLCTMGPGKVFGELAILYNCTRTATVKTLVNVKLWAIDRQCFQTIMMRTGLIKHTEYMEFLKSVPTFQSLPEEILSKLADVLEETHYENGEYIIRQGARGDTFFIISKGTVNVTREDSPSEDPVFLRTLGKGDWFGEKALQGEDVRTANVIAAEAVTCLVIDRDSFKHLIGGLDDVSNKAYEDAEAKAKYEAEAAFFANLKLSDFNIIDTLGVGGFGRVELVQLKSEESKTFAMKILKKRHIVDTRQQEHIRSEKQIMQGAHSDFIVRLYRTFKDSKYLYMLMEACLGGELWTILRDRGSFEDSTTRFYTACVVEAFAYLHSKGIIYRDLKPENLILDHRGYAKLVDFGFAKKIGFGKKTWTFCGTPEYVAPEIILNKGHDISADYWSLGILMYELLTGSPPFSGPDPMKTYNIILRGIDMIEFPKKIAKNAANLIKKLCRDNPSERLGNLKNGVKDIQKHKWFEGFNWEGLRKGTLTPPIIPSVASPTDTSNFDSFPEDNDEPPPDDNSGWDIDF
In short: as §1

PRKCI (PKC iota) = target: T6, PRKCI (PKC iota) (Homo sapiens, UniProt P41743)
T6 construct: purchased Thermo Fisher Scientific
T6 sequence (P41743 1-596): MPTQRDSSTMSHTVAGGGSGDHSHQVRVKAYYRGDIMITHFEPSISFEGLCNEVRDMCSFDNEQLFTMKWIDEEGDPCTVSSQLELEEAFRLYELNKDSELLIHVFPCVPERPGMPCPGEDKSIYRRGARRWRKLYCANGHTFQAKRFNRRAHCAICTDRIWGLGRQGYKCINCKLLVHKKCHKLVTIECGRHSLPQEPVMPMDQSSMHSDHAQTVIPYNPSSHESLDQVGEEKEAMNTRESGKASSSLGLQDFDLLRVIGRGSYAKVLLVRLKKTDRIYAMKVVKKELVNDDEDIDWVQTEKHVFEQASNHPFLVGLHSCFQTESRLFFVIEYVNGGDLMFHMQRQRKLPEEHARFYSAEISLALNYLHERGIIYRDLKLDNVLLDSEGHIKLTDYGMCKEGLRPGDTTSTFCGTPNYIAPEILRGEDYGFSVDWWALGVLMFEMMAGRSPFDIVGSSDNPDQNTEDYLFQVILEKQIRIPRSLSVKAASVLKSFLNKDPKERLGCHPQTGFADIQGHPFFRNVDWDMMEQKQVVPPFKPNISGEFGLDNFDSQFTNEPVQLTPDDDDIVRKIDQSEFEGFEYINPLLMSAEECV
In short: as §1

Row | SMILES | inhibition at 1 µM (PRKCH (PKC eta)) [%] | inhibition at 10 µM (PRKCH (PKC eta)) [%] | inhibition at 1 µM (ERBB4 (HER4)) [%] | inhibition at 10 µM (ERBB4 (HER4)) [%] | inhibition at 1 µM (RET S891A) [%] | inhibition at 10 µM (RET S891A) [%] | inhibition at 1 µM (NTRK2 (TRKB)) [%] | inhibition at 10 µM (NTRK2 (TRKB)) [%] | inhibition at 1 µM (PRKG1) [%] | inhibition at 10 µM (PRKG1) [%] | inhibition at 1 µM (PRKCI (PKC iota)) [%] | inhibition at 10 µM (PRKCI (PKC iota)) [%]
1 | COc1ccc2cc3c(N)nn(C(=O)c4cccc(N(C)C)c4)c3nc2c1 [MW05, (3-Amino-7-methoxypyrazolo[3,4-b]quinolin-1-yl)-[3-(dimethylamino)phenyl]methanone] | -3 | -9 | 5 | -11 | -15 | -18 | 13 | 42 | 5 | -11 | 20 | 6
2 | COc1ccc2c(c1OC)c(=O)n1c3ccc(O)cc3c3ccnc2c31 [MW01, 5-Hydroxy-10,11-dimethoxy-9H-benzo[c]indolo[3,2,1-ij][1,5]naphthyridin-9-one] | 1 | 7 | -3 | 4 | -3 | 30 | 35 | 68 | 27 | 59 | 4 | -8
